# Reference: publication PMC6747087, “Characterization of Tachyplesin Peptides and Their Cyclized Analogues to Improve Antimicrobial and Anticancer Properties” (International Journal of Molecular Sciences, 2019)
# Read-outs that look alike come from different tables or passages of the source. Residues, ends and D or L forms follow the SMILES beside them.
# Columns and labels:
# [1] = system: S. aureus ATCC 6538 biofilm; test: Activity against preformed biofilm (resazurin metabolic activity); assay type: cell-based, Staphylococcus aureus; conditions: cells remaining metabolically active at 32 µM, the highest concentration tested
# Method: (§1) S. aureus ATCC 6538 (1 × 10^6 cfu/mL) was cultured in Tryptic Soy Broth, containing 0.25% (w/v) glucose and incubated in 96-well microtiter flat-bottomed polystyrene plates for 24 h at 37 °C. Preformed biofilms were then washed with Mueller Hinton Broth to remove non-adherent cells. Two-fold serial dilutions of each peptide (highest concentration tested was 32 µM and lowest was 0.25 µM) were added to the biofilms for 4 h. Untreated 24 h preformed biofilms were used as a control. The metabolic activity of biofilm-embedded cells was determined using a resazurin reduction fluorometric assay as previously described.
# [2] = as above; assay type: cell-based, Staphylococcus aureus; conditions: 24 h preformed biofilm, 4 h peptide treatment, read-out: CC50 (reduction of 50% of the metabolically active cell population)
# Method: as §1
# [3] = system: S. aureus ATCC 6538; test: MIC against planktonic bacteria (resazurin); assay type: cell-based, Staphylococcus aureus; conditions: Mueller Hinton Broth
# Method: (§2) S. aureus ATCC 25923, S. aureus ATCC 6538, E. coli ATCC 25922, and E. coli DC2 CGSC 7139 were grown in Mueller Hinton Broth (Sigma Aldrich, St. Luis, USA). Bacterial cultures in the exponential growth phase were diluted to an OD600nm of 0.001 and seeded into 96-well plates. Peptides at different concentrations, starting at 64 µM and with two-fold serial dilutions (i.e., 64, 32, 16, 8, 4, 2, 1, 0.5, 0.25, 0.125 and 0.0625 µM), were incubated with cells; 0.05% (v/v) resazurin was added to the cultures the next day and the conversion to resorufin was measured after 1 h of incubation at 37 °C using a 565 nm excitation and 584 nm emission wavelength, as above.
# [4] = system: S. aureus ATCC 25923; test: MIC against planktonic bacteria (resazurin); assay type: cell-based, Staphylococcus aureus; conditions: Mueller Hinton Broth
# Method: as §2
# [5] = system: human red blood cells (RBCs); test: Hemolytic activity against human red blood cells; assay type: cell-based; conditions: human RBCs 0.25% (v/v), 1 h, 37 °C; mean ± SEM
# Method: (§3) A small amount of blood was collected from three healthy human donors. The blood was immediately diluted in PBS and centrifuged 4–5 times for 1 min at 4000 rpm to wash and separate the human red blood cells (RBCs). RBCs suspension (0.25% (v/v) in PBS) was incubated with peptides with two-fold serial dilutions of the peptide (highest concentration tested was 128 µM, and the lowest was 0.25 µM) in a 96-well plate. Melittin, a membrane disruptive peptide, was used as control. The plates were incubated for 1 h at 37 °C. After incubation, the plates were centrifuged for 5 min at 1000 rpm to pellet any non-lysed RBCs. A total of 100 µL of the supernatant were transferred to a new 96-well plate. The hemoglobin released into the supernatant from lysed cells was measured by absorbance at 415 nm using the Tecan infinite M1000Pro multiplate reader (Männedorf, Switzerland).
# [6] = Hemolytic activity against human red blood cells; assay type: cell-based; conditions: at 64 µM peptide, human RBCs, read-out: RBCs lysed (hemolysis)
# Method: as §3
# [7] = system: melanoma cell lines MM96L, HT144 and WM164; test: Cytotoxicity and selectivity (activity-toxicity index) for melanoma cell lines; assay type: cell-based; conditions: MHC inducing 10% (lower value) or 50% (higher value) cell death in human RBCs over median CC50 of melanoma lines
# Method: (§4) Cells were seeded into 96-well flat-bottom plates at 5 × 10^3 cells/well and incubated overnight. The medium was removed and replaced with 90 µL serum-free medium, 10 µL of 10x concentrated peptide solutions in PBS were added. PBS was added as blank and 0.1% (v/v) Triton X-100 was used to establish 100% of cell death. After 2 h incubation at 37 °C, 10 µL of filtered 0.05% (w/v) resazurin solution was added to each well [70]. Resazurin is converted to the pink and fluorescent compound resorufin by viable cells. After incubation overnight, the fluorescence intensity (λex = 565 nm and λem = 584 nm) was measured with the Tecan infinite M1000Pro multiplate reader (Männedorf, Switzerland).
# The selectivity was calculated through the activity-toxicity index (ATI). ATI = MHC/MCC50, with MHC being the minimal concentration necessary to induce 10% or 50% cell death in human red blood cells and MCC50 the median of cytotoxic concentrations (CC50) of all tested melanoma cell lines.
# [8] = system: E. coli DC2 CGSC 7139; test: MIC against planktonic bacteria (resazurin); assay type: cell-based, Escherichia coli; conditions: Mueller Hinton Broth
# Method: as §2
# [9] = system: E. coli ATCC 25922; test: MIC against planktonic bacteria (resazurin); assay type: cell-based, Escherichia coli; conditions: Mueller Hinton Broth
# Method: as §2
# [10] = Cytotoxicity assay (resazurin); assay type: cell-based, Human; conditions: ± SEM, n ≥ 3; for CC50 at 2 h: human
# Method: Cells were grown in cell culture flasks and incubated in a humidified atmosphere (5% CO2, 37 °C). The cancer cell lines HeLa and the control cell line HaCaT were grown in a DMEM medium supplemented with 1% (v/v) penicillin/streptomycin and 10% (v/v) fetal bovine serum (FBS). The cancer cell lines MM96L, HT144 and WM164 were grown in a RPMI medium supplemented with 1% (v/v) penicillin/[…], 10% (v/v) FBS, 20 mM L-glutamine, and 10 mM sodium pyruvate. Cell cultures were maintained by dilution upon reaching confluence, each 48–72 h. More information about the cell lines is available in Tables S2 and S3.
# as §4
# [11] = system: Pseudomonas aeruginosa biofilm; set-up: method as in PMID 18022289; conditions: rat model of ureteral stent infection; cited from earlier work
# [12] = mouse serum, 2 h; cited from earlier work
# [13] = in vitro; conditions: human, 25% (v/v) human serum
# Method: The serum stability assay was carried out as previously described with some modifications. Briefly, tachyplesin variants were incubated in 25% (v/v) human serum diluted in phosphate-buffered saline (PBS) at a final concentration of 50 µM at 37 °C. Triplicates were collected at time 0 h and 24 h and the serum proteins were precipitated with acetonitrile (1:3 ratio) supplemented with 3% TFA. Samples were kept on ice for 10 min before centrifugation at 17,000× g for 10 min at 4 °C. The peptide containing supernatant of each sample was harvested and quantified using RP-HPLC (10 to 45% solvent B, 1%/min gradient). The percentage of peptide stability in human serum was calculated by comparing the area of the peptide peak obtained at 24 h to that at time 0 h. A linear peptide containing 18 amino acid residues ([…]) was included as a control susceptible to proteolytic degradation.
# [14] = human serum, 2 h; cited from earlier work
# [15] = HT144, 2 h peptide in serum-free medium
# [16] = WM164, 2 h peptide in serum-free medium
smiles,measurement,setting,value
"CC[C@H](C)[C@@H]1NC(=O)CNC(=O)[C@H](CCCNC(=N)N)NC(=O)[C@H](Cc2ccc(O)cc2)NC(=O)[C@@H]2CSSC[C@H](NC1=O)C(=O)N[C@@H](Cc1ccc(O)cc1)C(=O)N[C@@H](CCCNC(=N)N)C(=O)N[C@@H](CCCCN)C(=O)N[C@H](C(=O)N[C@@H](CCCNC(=N)N)C(N)=O)CSSC[C@H](NC(=O)[C@H](Cc1c[nH]c3ccccc13)NC(=O)[C@@H](N)CCCCN)C(=O)N[C@@H](Cc1ccccc1)C(=O)N[C@@H](CCCNC(=N)N)C(=O)N[C@@H](C(C)C)C(=O)N2 [TIII, Tachyplesin III] (HELM PEPTIDE1{K.W.C.F.R.V.C.Y.R.G.I.C.Y.R.K.C.R.[am]}$PEPTIDE1,PEPTIDE1,3:R3-16:R3|PEPTIDE1,PEPTIDE1,7:R3-12:R3$$$V2.0; N-terminus assumed)",Metabolically Active Cells,[1],43.3 ± 4.1%
same,Concentration reducing biofilm metabolic activity by 50% at 4 h,"[2]; Staphylococcus aureus, preformed S. aureus biofilm",24.2 ± 4.1 µM
same,MIC,[3],4 to 8 µM
same,MIC,[4],1 to 4 µM
same,HC50 (concentration required to induce 50% lysis in RBCs),[5],86.4 ± 12.2 µM
same,hemolysis at 1 h,[6]; red blood cells in PBS,41%
same,"Melanoma Selectivity (activity-toxicity index, ATI = MHC/MCC50)",[7],5–48
same,MIC,[8],0.25 to 0.5 µM
same,MIC,[9],0.0625 to 0.5 µM
same,CC50 at 2 h,"[10]; HaCaT keratinocyte cells, HaCaT non-cancerous control, 2 h peptide in serum-free medium",7300 ± 500 nM
same,CC50 at 2 h,"[10]; HeLa cervical cancer cells, 2 h peptide in serum-free medium",21700 ± 1100 nM
same,CC50 at 2 h,"[10]; MM96L melanoma cells, 2 h peptide in serum-free medium",1800 ± 100 nM
same,CC50 at 2 h,[10]; [15],2000 ± 100 nM
same,CC50 at 2 h,[10]; [16],1700 ± 100 nM
same,prevention of biofilm formation,[11],prevent the formation of a Pseudomonas aeruginosa biofilm
"[H][C@]12CSSC[C@]([H])(NC(=O)[C@]([H])([C@@H](C)CC)NC(=O)CNC(=O)[C@H](CCCNC(=N)N)NC(=O)[C@H](Cc3ccc(O)cc3)NC1=O)C(=O)N[C@@H](Cc1ccc(O)cc1)C(=O)N[C@@H](CCCNC(=N)N)C(=O)N[C@@H](CCCNC(=N)N)C(=O)N[C@H](C(=O)N[C@@H](CCCNC(=N)N)C(N)=O)CSSC[C@H](NC(=O)[C@H](Cc1c[nH]c3ccccc13)NC(=O)[C@@H](N)CCCCN)C(=O)N[C@@H](Cc1ccccc1)C(=O)N[C@@H](CCCNC(=N)N)C(=O)N[C@@H](C(C)C)C(=O)N2 [TI, Tachyplesin I] (HELM PEPTIDE1{K.W.C.F.R.V.C.Y.R.G.I.C.Y.R.R.C.R.[am]}$PEPTIDE1,PEPTIDE1,3:R3-16:R3|PEPTIDE1,PEPTIDE1,7:R3-12:R3$$$V2.0)",Concentration reducing biofilm metabolic activity by 50%,[2],21.5 ± 2.2 µM
same,MIC,[3],4 to 8 µM
same,MIC,[4],1 to 4 µM
same,stability in serum,[12],completely stable
same,HC50 (concentration required to induce 50% lysis in RBCs),[5],34.9 ± 2.8 µM
same,hemolysis,[6],66%
same,MIC,[8],0.5 to 1 µM
same,MIC,[9],0.0625 to 0.5 µM
same,CC50,[10]; [15],1700 ± 200 nM
same,CC50,"[10]; HaCaT non-cancerous control, 2 h peptide in serum-free medium",11600 ± 1600 nM
same,CC50,"[10]; HeLa, 2 h peptide in serum-free medium",13100 ± 1200 nM
same,CC50,"[10]; MM96L, 2 h peptide in serum-free medium",1500 ± 100 nM
same,CC50,[10]; [16],2500 ± 100 nM
same,"remaining at 24 h, 50 µM",[13],25%
same,stability in serum,[14],completely stable
